How the values were obtained:
Format in all cases: biochemical
C481S Btk = C481S Btk (Homo sapiens, UniProt Q06187, C481S); experiment: Caliper-based kinase assay, C481S BTK; conditions: 0.5 nM enzyme, ATP 16 μM, room temperature 3 h; read-out: C481S BTK IC50 (nM) (reversible inhibition)
Protocol: (§1) A Caliper-based kinase assay (Caliper Life Sciences, Hopkinton, Mass.) was used to measure inhibition of WT and […] Btk kinase activity of a compound of the present disclosure. […] The reaction was then terminated with EDTA, final concentration 20 mM and the phosphorylated reaction product was quantified on a Caliper Desktop Profiler (Caliper LabChip 3000).

WT BTK [1] = biological target: T1, WT BTK (Homo sapiens, UniProt Q06187); experiment: In vitro dialysis assay (irreversibility assay), WT BTK; conditions: reversible or irreversible/covalent inhibition after 24 h dialysis
Protocol: The compound-enzyme complex was dialyzed against the same buffer supplemented with 40 mM ATP for 24 hr. Cumulative dialysis factor>160,000×. After dialysis, the BTK activity was measured in the presence […] and 1 mM substrate peptide and compared to that in non-dialyzed samples. Assay buffer: 100 mM HEPES, pH7.5; […]; 5 mM MgCl2; 1 mM DTT. In this study, Ibrutiib (a FDA approved irreversible BTK inhibitor) was used as a positive control and Saurosporine (a reversible BTK inhibitor) was used as a negative control.

WT BTK [2] = biological target: T1, WT BTK; experiment: Caliper-based kinase assay, WT BTK; conditions: 0.5 nM enzyme, ATP 16 μM, room temperature 3 h; read-out: WT BTK IC50 (nM) (irreversible inhibition)
Protocol: as §1

T1 sequence (Q06187 whole entry): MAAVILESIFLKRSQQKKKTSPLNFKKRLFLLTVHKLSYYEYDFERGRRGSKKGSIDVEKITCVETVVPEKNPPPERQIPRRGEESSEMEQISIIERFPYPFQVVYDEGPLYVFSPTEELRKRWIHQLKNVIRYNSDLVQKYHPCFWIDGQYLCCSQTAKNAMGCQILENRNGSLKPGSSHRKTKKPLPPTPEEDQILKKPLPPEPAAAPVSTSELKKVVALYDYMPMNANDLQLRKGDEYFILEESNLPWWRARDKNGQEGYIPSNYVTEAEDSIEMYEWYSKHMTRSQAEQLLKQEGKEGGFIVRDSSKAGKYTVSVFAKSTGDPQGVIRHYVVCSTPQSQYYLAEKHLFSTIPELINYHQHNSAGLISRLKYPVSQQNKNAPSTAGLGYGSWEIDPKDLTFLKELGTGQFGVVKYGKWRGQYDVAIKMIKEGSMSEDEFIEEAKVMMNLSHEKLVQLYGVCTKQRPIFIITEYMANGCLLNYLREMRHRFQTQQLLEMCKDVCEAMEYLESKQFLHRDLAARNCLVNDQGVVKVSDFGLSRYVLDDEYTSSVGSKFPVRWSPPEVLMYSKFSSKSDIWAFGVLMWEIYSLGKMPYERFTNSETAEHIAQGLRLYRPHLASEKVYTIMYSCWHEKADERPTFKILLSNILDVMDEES
C481S Btk, sequence (Q06187 whole entry C481S): as the sequence (Q06187 whole entry) above, with C481S counted along it

Compound	IC50 (C481S Btk)	Conclusion (WT BTK) (WT BTK [1])	IC50 (WT BTK [2])
C=CC(=O)Nc1cc(Nc2nc(-c3ccnc(N4CCc5c(sc6c5CC(C)(C)C6)C4=O)c3CO)cn(C)c2=O)ccc1N1CCN(C2COC2)C[C@@H]1C [Example 34, N-(5-[[6-(2-[4,4-dimethyl-9-oxo-7-thia-10-azatricyclo[6.4.0.0^[2,6]]dodeca-1(8),2(6)-dien-10-yl]-3-(hydroxymethyl)pyridin-4-yl)-4-methyl-3-oxopyrazin-2-yl]amino]-2-[(2S)-2-methyl-4-(oxetan-3-yl)piperazin-1-yl]phenyl)prop-2-enamide]	0.46 nM	Irreversible/covalent inhibition	
C=CC(=O)Nc1cc(Nc2nc(-c3ccnc(N4CCn5c(cc6c5CC(C)(C)C6)C4=O)c3C)cn(C)c2=O)ccc1N1CCN(C2CCOCC2)C[C@@H]1C(F)(F)F [Example 53-R, N-(5-[[6-(2-[4,4-dimethyl-9-oxo-1,10-diazatricyclo[6.4.0.0^[2,6]]dodeca-2(6),7-dien-10-yl]-3-methylpyridin-4-yl)-4-methyl-3-oxopyrazin-2-yl]amino]-2-[(2R)-4-(oxan-4-yl)-2-(trifluoromethyl)piperazin-1-yl]phenyl)prop-2-enamide]		Irreversible/covalent inhibition	0.4 nM
C=CC(=O)Nc1cc(Nc2nc(-c3ccnc(N4CCn5c(cc6c5CC(C)(C)C6)C4=O)c3C)cn(C)c2=O)ccc1N1CCN(C2CCOCC2)C[C@H]1C(F)(F)F [Example 53-S, N-(5-[[6-(2-[4,4-dimethyl-9-oxo-1,10-diazatricyclo[6.4.0.0^[2,6]]dodeca-2(6),7-dien-10-yl]-3-methylpyridin-4-yl)-4-methyl-3-oxopyrazin-2-yl]amino]-2-[(2S)-4-(oxan-4-yl)-2-(trifluoromethyl)piperazin-1-yl]phenyl)prop-2-enamide]		Irreversible/covalent inhibition	1 nM
C=CC(=O)Nc1cc(Nc2nc(-c3ccnc(N4CCc5c(sc6c5CCCC6)C4=O)c3C)cn(C)c2=O)ccc1N1CCN(C2CCOCC2)C[C@@H]1C(F)(F)F [Example 54-R, N-(5-[[4-methyl-6-(3-methyl-2-[6-oxo-8-thia-5-azatricyclo[7.4.0.0^[2,7]]trideca-1(9), 2(7)-dien-5-yl]pyridin-4-yl)-3-oxopyrazin-2-yl]amino]-2-[(2R)-4-(oxan-4-yl)-2-(trifluoromethyl)piperazin-1-yl]phenyl)prop-2-enamide]		Irreversible/covalent inhibition	2.9 nM
C=CC(=O)Nc1cc(Nc2nc(-c3ccnc(N4CCc5c(sc6c5CCCC6)C4=O)c3C)cn(C)c2=O)ccc1N1CCN(C2CCOCC2)C[C@H]1C(F)(F)F [Example 54-S, N-(5-[[4-methyl-6-(3-methyl-2-[6-oxo-8-thia-5-azatricyclo[7.4.0.0^[2,7]]trideca-1(9), 2(7)-dien-5-yl]pyridin-4-yl)-3-oxopyrazin-2-yl]amino]-2-[(2S)-4-(oxan-4-yl)-2-(trifluoromethyl)piperazin-1-yl]phenyl)prop-2-enamide]		Irreversible/covalent inhibition	4.4 nM
C=CC(=O)Nc1cc(Nc2nc(-c3ccnc(N4CCc5c(sc6c5CCCC6)C4=O)c3CO)cn(C)c2=O)ccc1N1CCN(C2CCOCC2)C[C@@H]1C(F)(F)F [Example 55-R, N-[5-([6-[3-(hydroxymethyl)-2-[6-oxo-8-thia-5-azatricyclo[7.4.0.0^[2,7]]trideca-1(9), 2(7)-dien-5-yl]pyridin-4-yl]-4-methyl-3-oxopyrazin-2-yl]amino)-2-[(2R)-4-(oxan-4-yl)-2-(trifluoromethyl)piperazin-1-yl]phenyl]prop-2-enamide]		Irreversible/covalent inhibition	0.24 nM

— patent US20220363689A1, “INHIBITOR OF BTK AND MUTANTS THEREOF” (Newave Pharmaceutical Inc., priority 2019, published 2022)
